These results are taken from ChEMBL document CHEMBL4616619, “Acetylene Group, Friend or Foe in Medicinal Chemistry” (J Med Chem, 2020).

Series [1] concerns Human immunodeficiency virus 1. In words: Antiviral activity against HIV1 3B infected in human MT2 cells. Type of series: functional, organism-based. The conditions noted are these: Human immunodeficiency virus 1, 3B.
Series [2] is described as follows: Cytotoxicity against human MT2 cells. Type of series: cell-based.
Series [3] can be described thus: Thermodynamic aqueous solubility of compound in pH 7 buffer at 1 to 2 mg after 4 hrs by HPLC analysis. Type of series: physicochemical. The conditions noted are these: read-out: Therm_solubility.
Series [4] is described as follows: Half life in human plasma at 25 uM after 1 to 3 hrs by reversed-phase HPLC. Type of series: ADME, cell-free.
Series [5] can be described thus: Stability in human liver microsomes assessed as compound metabolized at 25 uM after 30 mins in presence of NADPH by HPLC analysis. Type of series: ADME, Microsome. The conditions noted are these: read-out: Drug metabolism. For orientation: Microsomes from liver hold many membrane-bound enzymes, among them those of drug oxidation.
For another series, the system named is Human rhinovirus sp. As to the kind of experiment: Antiviral activity against Human rhinovirus. Type of series: functional, organism-based.
Series [6] deals with T1, Dihydropyrimidine dehydrogenase [NADP(+)] (Bos taurus) (UniProt Q28007).
T1 sequence (whole entry): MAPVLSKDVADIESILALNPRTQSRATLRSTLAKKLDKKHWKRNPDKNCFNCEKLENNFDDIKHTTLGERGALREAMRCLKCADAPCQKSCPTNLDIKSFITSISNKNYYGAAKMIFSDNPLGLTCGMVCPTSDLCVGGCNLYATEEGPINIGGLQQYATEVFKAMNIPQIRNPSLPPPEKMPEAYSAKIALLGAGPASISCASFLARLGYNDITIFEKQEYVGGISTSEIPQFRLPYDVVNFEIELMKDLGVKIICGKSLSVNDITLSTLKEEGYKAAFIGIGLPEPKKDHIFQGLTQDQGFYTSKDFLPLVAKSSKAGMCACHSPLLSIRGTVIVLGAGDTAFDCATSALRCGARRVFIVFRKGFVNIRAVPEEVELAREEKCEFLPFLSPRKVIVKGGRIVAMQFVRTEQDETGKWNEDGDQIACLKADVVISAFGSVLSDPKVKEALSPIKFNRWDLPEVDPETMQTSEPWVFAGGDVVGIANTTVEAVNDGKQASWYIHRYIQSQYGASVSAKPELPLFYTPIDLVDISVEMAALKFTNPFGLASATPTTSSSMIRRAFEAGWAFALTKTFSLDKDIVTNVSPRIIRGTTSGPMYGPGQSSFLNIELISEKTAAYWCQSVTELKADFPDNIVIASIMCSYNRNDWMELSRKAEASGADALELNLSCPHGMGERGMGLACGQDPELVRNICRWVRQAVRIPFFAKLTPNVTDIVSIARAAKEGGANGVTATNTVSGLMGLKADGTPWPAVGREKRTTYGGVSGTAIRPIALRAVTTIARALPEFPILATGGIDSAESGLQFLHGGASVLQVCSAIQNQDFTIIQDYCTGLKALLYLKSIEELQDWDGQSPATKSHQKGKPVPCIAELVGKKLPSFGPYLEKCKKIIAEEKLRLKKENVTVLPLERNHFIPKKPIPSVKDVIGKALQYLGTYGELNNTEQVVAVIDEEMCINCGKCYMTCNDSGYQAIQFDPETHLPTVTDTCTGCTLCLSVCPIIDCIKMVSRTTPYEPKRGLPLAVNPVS
As to the kind of experiment: Inactivation of bovine liver DHPDHase assessed as Kinact in presence of NADPH.

Series [7] in a line: Substrate activity at UDP-glucuronosyltransferase in cynomolgus monkey microsomes assessed as Vmax. Type of series: ADME, Macaca fascicularis.
Series [8] in a line: Plasma clearance in iv dosed cynomolgus monkey. Type of series: ADME, organism-based, Macaca fascicularis.
A short description of series [9]: Half life in cynomolgus monkey. Particulars: in vivo. Type of series: ADME, Macaca fascicularis.
Series [10] deals with T2, Amine oxidase [flavin-containing] A (Homo sapiens, UniProt P21397).
T2 sequence (P21397 whole entry): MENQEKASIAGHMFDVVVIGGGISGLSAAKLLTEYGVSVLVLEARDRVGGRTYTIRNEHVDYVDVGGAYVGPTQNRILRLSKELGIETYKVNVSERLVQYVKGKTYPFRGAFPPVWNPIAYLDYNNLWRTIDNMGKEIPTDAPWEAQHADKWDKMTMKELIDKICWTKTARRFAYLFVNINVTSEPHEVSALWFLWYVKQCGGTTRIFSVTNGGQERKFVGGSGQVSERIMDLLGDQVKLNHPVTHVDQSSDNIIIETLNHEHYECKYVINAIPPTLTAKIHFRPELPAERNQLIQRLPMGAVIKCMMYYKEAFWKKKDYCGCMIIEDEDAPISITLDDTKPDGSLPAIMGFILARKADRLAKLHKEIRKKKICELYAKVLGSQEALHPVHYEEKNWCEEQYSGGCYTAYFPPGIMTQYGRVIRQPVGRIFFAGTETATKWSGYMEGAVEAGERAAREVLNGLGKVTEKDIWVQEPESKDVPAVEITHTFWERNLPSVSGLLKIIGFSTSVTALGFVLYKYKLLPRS
As to the kind of experiment: Inhibition of human MAO-A.

Series [11] addresses T3, Thymidine kinase, cytosolic (Homo sapiens, UniProt P04183).
T3 sequence (P04183 whole entry): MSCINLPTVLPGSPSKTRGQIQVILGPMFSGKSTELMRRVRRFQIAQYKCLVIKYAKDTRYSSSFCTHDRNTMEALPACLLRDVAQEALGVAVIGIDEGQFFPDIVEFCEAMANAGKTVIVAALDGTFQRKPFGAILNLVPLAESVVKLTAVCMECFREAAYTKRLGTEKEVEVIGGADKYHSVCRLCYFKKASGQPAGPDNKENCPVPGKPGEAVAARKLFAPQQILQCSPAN
As to the kind of experiment: (§1) Substrate activity at human thymidine kinase 1 assessed as Km incubated for 24 hrs. Type of series: ADME.

In a further series the target is Cholinesterase (Homo sapiens, UniProt P06276). As to the kind of experiment: Inhibition of butyrylcholinesterase (unknown origin).
Sequence of Cholinesterase (P06276 whole entry): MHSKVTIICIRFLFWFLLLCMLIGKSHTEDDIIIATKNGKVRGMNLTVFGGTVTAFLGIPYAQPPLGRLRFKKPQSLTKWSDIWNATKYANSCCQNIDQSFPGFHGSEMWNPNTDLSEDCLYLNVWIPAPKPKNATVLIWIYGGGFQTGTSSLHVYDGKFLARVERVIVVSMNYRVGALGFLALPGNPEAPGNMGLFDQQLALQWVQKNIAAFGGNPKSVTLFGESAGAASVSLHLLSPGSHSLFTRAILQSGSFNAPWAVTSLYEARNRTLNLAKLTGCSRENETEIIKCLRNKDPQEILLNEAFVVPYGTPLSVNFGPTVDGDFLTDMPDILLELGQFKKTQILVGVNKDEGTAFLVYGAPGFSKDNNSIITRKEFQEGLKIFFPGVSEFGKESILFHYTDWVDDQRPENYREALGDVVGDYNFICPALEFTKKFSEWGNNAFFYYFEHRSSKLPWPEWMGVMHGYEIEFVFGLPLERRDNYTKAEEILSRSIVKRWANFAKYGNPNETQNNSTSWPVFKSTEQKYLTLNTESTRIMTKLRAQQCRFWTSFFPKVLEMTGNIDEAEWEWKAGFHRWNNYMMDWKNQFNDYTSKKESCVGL
The next series concerns the target Acetylcholinesterase (Homo sapiens, UniProt P22303). As to the kind of experiment: Inhibition of acetylcholinesterase (unknown origin).
Another series has as its system rhinovirus B14. As to the kind of experiment: Antiviral activity against Human rhinovirus 14 infected in HeLa […] cells after 2 days by XTT/PMS assay. Type of series: functional, organism-based. Particulars: Rhinovirus B, 48 h. On the technique in general: Formazan colour is commonly taken as a measure of viable cells.
Series [12] has as its system Human immunodeficiency virus 1. As to the kind of experiment: Antiviral activity against HIV-1 3B infected in human MT4 cells incubated for 5 days by MTT assay. Type of series: functional, organism-based. Particulars: Human immunodeficiency virus 1, 3B, MT4, 120 h.
A short description of series [13]: Cytotoxicity against human MT4 cells. Type of series: cell-based.
A short description of series [14]: Selectivity ratio of CC50 for human MT4 cells to IC50 for HIV-1 3B. Type of series: toxicity. Particulars: read-out: Ratio CC50/IC50.
The test system of another series is Poliovirus 1. As to the kind of experiment: Antiviral activity against Poliovirus type 1 Mahoney infected in African green monkey BSC1 cells by crystal violet staining based plaque reduction assay. Type of series: functional, organism-based. The conditions noted are these: Enterovirus C, BSC-1.
A short description of series [15]: Cmax in rhesus monkey at 8 mg/kg, po. Type of series: ADME, organism-based, Macaca mulatta. Particulars: in vivo. Also on record: dose 8 mg/kg, route oral.
Series [16] in a line: Inactivation of CYP2B1 (unknown origin). Details: species or system Homo sapiens.
Another series is filed under the species Homo sapiens. In words: Inactivation of CYP2B1 (unknown origin) assessed as Kinact.
The target in series [17] is T2, Amine oxidase [flavin-containing] A. In words: Inhibition of human MAO-A using Tyramine hydrochloride as substrate preincubated for 30 mins followed by substrate addition and measured for 1 hr by fluorometric method.
Substrate in series [18]: C#C[C@@]1(CO)C=C[C@H](n2cc(C)c(=O)[nH]c2=O)O1
Described as §1. Type of series: ADME.

In brackets after ≈: the same amount, converted by molar mass.

Sequence of Acetylcholinesterase (P22303 whole entry): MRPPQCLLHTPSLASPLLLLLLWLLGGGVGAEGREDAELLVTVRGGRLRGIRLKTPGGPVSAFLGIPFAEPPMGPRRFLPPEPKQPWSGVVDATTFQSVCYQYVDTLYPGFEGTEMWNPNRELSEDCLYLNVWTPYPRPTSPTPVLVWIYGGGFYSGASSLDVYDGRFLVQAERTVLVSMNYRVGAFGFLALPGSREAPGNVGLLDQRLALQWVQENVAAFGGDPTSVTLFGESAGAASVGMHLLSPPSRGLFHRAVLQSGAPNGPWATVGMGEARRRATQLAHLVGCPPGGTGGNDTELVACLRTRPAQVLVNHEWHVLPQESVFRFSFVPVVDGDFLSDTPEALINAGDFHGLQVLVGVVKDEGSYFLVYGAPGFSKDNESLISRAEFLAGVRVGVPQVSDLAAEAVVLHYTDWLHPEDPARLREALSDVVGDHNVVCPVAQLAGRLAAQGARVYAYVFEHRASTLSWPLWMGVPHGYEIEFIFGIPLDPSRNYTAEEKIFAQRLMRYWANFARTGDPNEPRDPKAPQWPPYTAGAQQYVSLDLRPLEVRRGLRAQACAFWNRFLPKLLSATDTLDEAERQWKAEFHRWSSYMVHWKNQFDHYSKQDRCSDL

For orientation: EC50 means the concentration giving half of the maximal effect. As a reminder, the CC50 is the concentration at which the toxic effect on the cells reaches its halfway point. Turning to `Cc1cn([C@H]2C=C[C@@](C#N)(CO)O2)c(=O)[nH]c1=O`, in series [1], a half-maximal effect (EC50) was put at 7000 nM. The molecule also returned a CC50 in series [2] of more than 100000 nM.
Taken in the same sequence, the figures for `C#C[C@@]1(CO)C=C[C@H](n2cc(C)c(=O)[nH]c2=O)O1` [CENSAVUDINE] were 250 nM and more than 256000 nM.
Broadly, the half-life is the time in which the quantity being followed falls by half. Turning to `C#CC[C@@H](C(=O)N[C@H](/C=C/C(=O)OCC)CC1CCNC1=O)n1cccc(NC(=O)c2cc(C)on2)c1=O` (stereo partly specified), the solubility thermodynamic at 4 h in series [3] stood at 377 µg/mL (≈ 720 µM). The half-life at 25 µM in series [4] is 6.6 h. The metabolised at 0.5 h, 25 µM in series [5] was found to be 40%. In the series with Human rhinovirus sp., the 50% effective concentration (EC50) was determined as 58 nM.
For the molecule `N#Cc1cnc(O)nc1O`, the Kinact in [6] worked out at 0.78 min⁻¹.
As usually defined, the Vmax is the rate approached at saturating substrate. By clearance is commonly meant the rate of elimination divided by the concentration. For `CC(C#Cc1cccc(Oc2ccc(F)cc2)c1)N(O)C(N)=O` (stereo unspecified) [FENLEUTON], in series [7], the Vmax worked out at 0.05 nmol/min/mg. Further, the clearance in [8] was found to be 1.3 mL/min/kg. In [9], the half-life is 5.5 h.
As a reminder, the IC50 is the point on the concentration scale where inhibition reaches its midpoint. Consider `C#CCN[C@@H]1CCc2ccc(OC(=O)N(C)CC)cc21` [LADOSTIGIL], for which the half-maximal inhibitory concentration (IC50) in [10] was more than 100000 nM.
Consider `CC(C#Cc1ccc(Cc2ccc(F)cc2)s1)N(O)C(N)=O` (stereo unspecified), for which, in series [9], the half-life was 14.5 h.
For `Oc1ncc(/C=C/Br)c(O)n1`, the Kinact in [6] worked out at 0.6 min⁻¹.
The Km is the concentration of substrate that gives half-maximal velocity. With `Cc1cn([C@H]2C=C[C@@H](CO)O2)c(=O)[nH]c1=O` [STAVUDINE], the Michaelis-Menten constant (Km) in series [11] worked out at 133 µM. Moreover, it took 1300 nM to reach a half-maximal effect in series [1] (EC50). It took 98000 nM to reach half-maximal cytotoxicity in [2] (CC50).
As for `O=c1[nH]cc(Br)c(=O)[nH]1`, the Kinact in [6] turned out to be 0.42 min⁻¹.
Turning to `C#CCNCc1cc2cc(OCc3ccccc3)ccc2[nH]1`, the IC50 against Cholinesterase and against Acetylcholinesterase was more than 100000 nM throughout.
For the molecule `C#Cc1c[nH]c(=O)[nH]c1=O`, the Kinact in series [6] stood at 5.64 min⁻¹.
Turning to `CC(/C=C/c1cccc(Oc2ccc(F)cc2)c1)N(O)C(N)=O` (stereo unspecified), in series [7], the Vmax came to 0.19 nmol/min/mg. In addition, the clearance in series [8] was determined as 2 mL/min/kg. The molecule also gave a half-life in series [9] of 4.7 h.
`[N-]=[N+]=C1C=NC(=O)NC1=O`: in series [6], the Kinact came to 1.68 min⁻¹.
On to `CCOC(=O)/C=C/[C@H](CC1CCNC1=O)NC(=O)[C@H](Cc1ccc(F)c(F)c1)n1cccc(NC(=O)c2cc(C)on2)c1=O` (stereo partly specified), for which the solubility thermodynamic at 4 h in series [3] worked out at 25 µg/mL (≈ 40.9 µM). In [4], this molecule showed a half-life at 25 µM of 1.4 h. Moreover, in [5], the metabolised at 0.5 h, 25 µM came to 81%. Further, the EC50 in the series on rhinovirus B14 was 11 nM.
`C#C[C@]1(CO)O[C@@H](n2cnc3c(N)nc(F)nc32)C[C@@H]1O` had a concentration for half-maximal inhibition (IC50) in series [12] of 0.3 nM. Further, half-maximal cytotoxicity in [13] (CC50) was put at 19200 nM. Moreover, the selectivity ratio in series [14] was more than 60000.
By Cmax is commonly meant the maximum level reached in the sampled fluid or tissue. As to `C/C=C(\c1ccccc1)c1ccc2nc(N)n(S(=O)(=O)C(C)C)c2c1`, 0.06 µg/mL (≈ 0.169 µM) corresponded to half-maximal inhibition in the series with Poliovirus 1 (IC50). The Cmax in [15] lay in the range of 14 to 140 ng/mL.
In series [16], `C#CCN(C)[C@H](C)Cc1ccccc1` [SELEGILINE] yielded a Ki of 1000 nM. Also, in the series filed under Homo sapiens, the Kinact turned out to be 0.23 min⁻¹.
`C#C/C=C(\c1ccccc1)c1ccc2nc(N)n(S(=O)(=O)C(C)C)c2c1` gave a half-inhibitory concentration (IC50) with Poliovirus 1 of 0.02 µg/mL (≈ 0.0547 µM). The Cmax in [15] was 70 to 300 ng/mL.
As to `O=c1[nH]cc(C(F)(F)F)c(=O)[nH]1`, the Kinact in [6] came to 0.23 min⁻¹.
Take `CC(c1cc2ccccc2s1)N(O)C(N)=O` (stereo unspecified) [ZILEUTON]: the Vmax in [7] is 1.2 nmol/min/mg. Besides, in series [8], the clearance came out at 14 mL/min/kg. The half-life in series [9] is 0.4 h.
Regarding `CC#Cn1ccc(=O)[nH]c1=O`, in series [6], the Kinact is 0.46 min⁻¹.
Molecule `C#CCN(C)c1nc(NCCCCC2CCN(Cc3ccccc3)CC2)c(C#N)cc1C#N` returned an IC50 in series [17] of more than 100 nM.

B1: Thymidine kinase, cytosolic (Homo sapiens) (protein)
chain: T3 sequence (P04183 whole entry)
For B1, in series [18], the Km was 53 µM.
